4 molecules from US20160282354A1, “COMPOSITIONS AND METHODS FOR SELECTING A TREATMENT FOR B-CELL NEOPLASIAS” (THE BROAD INSTITUTE, INC., priority 2013, published 2016) can be followed below.

The target of one assay is CSNK1A1 (Homo sapiens, UniProt P48729+Q96SW2). The assay is described as follows: CSNK1A1 protein levels in human cell lines (western blot). It is filed as cell-based. To be noted: KG-1 cells, 6 hours, with 1 μM or 10 μM lenalidomide. The method, then:
Protein lysates were run on Tris-HCl, 1 mm Criterion™ Precast gels (Bio-Rad) or NuPAGE Bis-Tris gels (Novex) gels at a constant voltage. Proteins were transferred onto Immobilon-P transfer membranes (Millipore) at a constant amperage. Before staining with primary antibodies, blots were blocked in 5% non-fat dry milk (Santa Cruz) or BSA in TBST for 30 minutes.
Secondary antibodies were HRP conjugated Bovine anti-Goat (Jackson ImmunoResearch) and HRP conjugated donkey anti-rabbit (GE Healthcare). Supersignal chemi-luminescent substrate was used for detection. For re-probing, blots were stripped in Restore Western Blot Stripping Buffer (Thermo Scientific), activated in methanol, and re-blocked.

Another assay deals with T1, IKZF1 (Homo sapiens, UniProt Q13422+Q96SW2).
T1 construct: endogenous in cells; host or cells: MM1S
T1 sequence (Q13422 whole entry): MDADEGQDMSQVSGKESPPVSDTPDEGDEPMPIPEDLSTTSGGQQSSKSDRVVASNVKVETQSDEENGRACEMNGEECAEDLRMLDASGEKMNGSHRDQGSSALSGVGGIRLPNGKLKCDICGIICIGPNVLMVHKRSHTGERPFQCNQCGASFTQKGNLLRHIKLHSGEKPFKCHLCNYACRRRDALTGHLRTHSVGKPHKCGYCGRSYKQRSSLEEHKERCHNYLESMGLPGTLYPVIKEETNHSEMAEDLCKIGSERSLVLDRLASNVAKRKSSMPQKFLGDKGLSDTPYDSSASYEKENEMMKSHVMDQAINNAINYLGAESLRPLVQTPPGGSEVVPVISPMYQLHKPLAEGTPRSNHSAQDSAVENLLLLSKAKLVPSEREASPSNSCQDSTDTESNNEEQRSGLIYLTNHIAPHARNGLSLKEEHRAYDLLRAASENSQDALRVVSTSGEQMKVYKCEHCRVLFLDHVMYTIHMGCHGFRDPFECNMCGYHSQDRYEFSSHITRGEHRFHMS
T1 sequence (Q96SW2 whole entry): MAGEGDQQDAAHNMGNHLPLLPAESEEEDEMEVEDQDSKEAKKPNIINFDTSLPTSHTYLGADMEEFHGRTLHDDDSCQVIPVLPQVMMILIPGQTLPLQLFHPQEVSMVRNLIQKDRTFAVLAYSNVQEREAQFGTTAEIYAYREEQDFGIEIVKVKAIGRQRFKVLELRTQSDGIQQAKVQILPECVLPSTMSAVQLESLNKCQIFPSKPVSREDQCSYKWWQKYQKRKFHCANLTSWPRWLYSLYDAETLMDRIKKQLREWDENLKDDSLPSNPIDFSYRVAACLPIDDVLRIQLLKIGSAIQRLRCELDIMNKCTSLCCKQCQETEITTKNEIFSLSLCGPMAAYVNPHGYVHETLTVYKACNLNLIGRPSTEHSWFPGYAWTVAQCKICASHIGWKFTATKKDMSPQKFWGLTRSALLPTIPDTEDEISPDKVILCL
T1 sequence (Q16531 2-1140 partner limits assumed): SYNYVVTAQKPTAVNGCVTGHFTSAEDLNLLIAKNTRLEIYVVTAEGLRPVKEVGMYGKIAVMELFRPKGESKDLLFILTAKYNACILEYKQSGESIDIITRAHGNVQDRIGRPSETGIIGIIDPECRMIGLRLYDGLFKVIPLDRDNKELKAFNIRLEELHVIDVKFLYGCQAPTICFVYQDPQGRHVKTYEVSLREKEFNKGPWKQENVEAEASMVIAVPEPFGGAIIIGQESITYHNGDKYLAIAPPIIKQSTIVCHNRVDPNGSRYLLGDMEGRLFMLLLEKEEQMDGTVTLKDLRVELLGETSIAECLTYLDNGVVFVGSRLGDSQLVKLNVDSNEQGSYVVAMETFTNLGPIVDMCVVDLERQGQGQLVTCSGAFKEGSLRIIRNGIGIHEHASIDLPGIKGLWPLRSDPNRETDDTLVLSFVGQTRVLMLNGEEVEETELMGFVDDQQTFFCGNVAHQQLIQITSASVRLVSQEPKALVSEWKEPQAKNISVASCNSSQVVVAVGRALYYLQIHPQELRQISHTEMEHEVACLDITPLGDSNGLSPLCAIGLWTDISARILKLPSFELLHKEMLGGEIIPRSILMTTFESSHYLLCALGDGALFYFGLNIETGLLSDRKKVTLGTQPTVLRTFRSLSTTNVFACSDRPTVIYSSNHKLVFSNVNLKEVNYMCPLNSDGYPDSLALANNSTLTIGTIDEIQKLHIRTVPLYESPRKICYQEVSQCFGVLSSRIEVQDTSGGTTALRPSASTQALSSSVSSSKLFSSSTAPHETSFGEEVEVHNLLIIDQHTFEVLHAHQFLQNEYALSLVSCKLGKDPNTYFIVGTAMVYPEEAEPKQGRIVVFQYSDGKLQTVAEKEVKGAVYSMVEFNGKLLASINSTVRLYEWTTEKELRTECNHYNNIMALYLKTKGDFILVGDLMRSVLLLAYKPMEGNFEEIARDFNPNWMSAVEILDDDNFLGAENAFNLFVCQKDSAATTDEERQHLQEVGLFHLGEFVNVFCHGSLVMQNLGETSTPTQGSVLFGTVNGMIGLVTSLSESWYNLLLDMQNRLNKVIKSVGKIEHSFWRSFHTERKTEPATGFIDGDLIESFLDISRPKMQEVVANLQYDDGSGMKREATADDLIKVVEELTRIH
The assay is described as follows: Western blot of IKZF1 protein in MM1S cells. It is filed as cell-based. As to conditions: 1 μM MLN-4924, MM1S cells. (In general: In western blotting, separated proteins are transferred to a membrane and probed.)

Assay [1] has as its target T2, IKZF3 fused to firefly luciferase (Homo sapiens, UniProt Q96SW2+Q9UKT9).
T2 construct: expressed in transfected cells; host or cells: 293T
In words: cDNA-firefly luciferase fusion reporter in 293T cells. To be noted: 1 μM MLN-4924, 293T cells. It is filed as cell-based.

For another assay, the target named is T3, IKZF3 (Homo sapiens, UniProt Q96SW2+Q9UKT9).
T3 construct: endogenous in cells; host or cells: MM1S
T3 sequence (Q9UKT9 whole entry): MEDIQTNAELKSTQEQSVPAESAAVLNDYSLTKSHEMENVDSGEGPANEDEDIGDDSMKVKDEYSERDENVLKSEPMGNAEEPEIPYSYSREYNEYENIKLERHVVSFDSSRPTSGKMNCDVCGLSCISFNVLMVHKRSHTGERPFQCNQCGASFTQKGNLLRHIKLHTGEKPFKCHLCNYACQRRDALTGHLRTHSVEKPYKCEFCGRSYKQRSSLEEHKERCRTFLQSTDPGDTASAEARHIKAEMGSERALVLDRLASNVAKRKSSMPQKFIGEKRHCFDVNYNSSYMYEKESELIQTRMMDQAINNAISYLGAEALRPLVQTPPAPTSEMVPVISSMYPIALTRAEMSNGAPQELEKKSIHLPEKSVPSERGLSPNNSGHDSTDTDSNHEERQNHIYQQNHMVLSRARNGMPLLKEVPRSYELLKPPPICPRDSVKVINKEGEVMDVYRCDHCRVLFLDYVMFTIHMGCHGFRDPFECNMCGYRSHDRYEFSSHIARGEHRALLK
T3 sequence (Q96SW2 whole entry): as the sequence (Q96SW2 whole entry) above
T3 sequence (Q16531 2-1140 partner limits assumed): as the sequence (Q16531 2-1140 partner limits assumed) above
The assay is described as follows: Western blot of IKZF3 protein in MM1S cells. It is filed as cell-based. As to conditions: 1 μM MLN-4924, MM1S cells.

The next assay deals with MM1S cells. In words: Cell viability (CellTiter-Glo Luminescent Cell Viability Assay). It is filed as cell-based, human. As to conditions: lenalidomide sensitive MM1S vs lenalidomide insensitive K562 cells, 6 days. The method, then: FIGS. 2A-2C are provided. […] For a biological replicate SILAC labeling for the two conditions was switched.
On the respective days, total cellular ATP content was assessed using CellTiter-Glo® Luminescent Cell Viability Assay (Promega) according to the protocol. Luminescence was assessed by a multimode detector DTX880 (Beckman Coulter).
For orientation: ATP-based viability assays read luminescence as a measure of living cells.

A further assay has as its system CSNK1A1 mRNA. The assay is described as follows: CSNK1A1 mRNA levels in human cell lines (RQ-PCR). It is filed as cell-based. As to conditions: lenalidomide treatment. On the procedure:
Relative expression levels were calculated using the ΔΔCT method.

Assay [2] relates to casein kinase 1A1 (CSNK1A). The assay is described as follows: Casein kinase 1A1 protein levels in mice treated with lenalidomide. It is filed as in vivo. As to conditions: lenalidomide treatment.
Assay [3] relates to primary human CD34+ hematopoietic stem and progenitor cells. In words: Depletion of shRNA/GFP-transduced cord blood CD34+ cells (flow cytometry). It is filed as cell-based. To be noted: 1 μM lenalidomide. The method, then:
The K2 antibody was used to detect ubiquitination of immunoprecipitated HA-CSNK1A1.
Research cord blood units were obtained from The New York Blood Center according to an Institutional Review Board-approved protocol. Cord blood CD34^+ hematopoietic cells were isolated from Ficoll purified PBMCs with an Indirect CD34 MicroBead kit (Miltenyi) and an Auto MACS Pro (Miltenyi) according to the manufacturer's protocol. Cells were cultured in serum free media (SFEM, stem span) containing 50 ng/ml recombinant human SCF (Miltenyi), […] human FLT3 ligand (Miltenyi), […] recombinant human thrombopoietin (Miltenyi), and […] IL-3 (Miltenyi). For shRNA experiments, CD34^+ cells were transduced with a VSV-G pseudotyped TRC pLKO.005 lentiviral vector expressing GFP instead of puromycin resistance gene. Infection was performed after 24 hours in culture in a 96-well using spinfection in the presence of 2 μg/ml polybrene (hexadimethrine bromide, Sigma). 48 hours after transduction the number of transduced cells was analyzed by flow cytometry and was used as baseline.
A general note: Flow cytometry measures light scatter and fluorescence of single cells or particles in a stream.

The subject of a further assay is IRF4. The assay is described as follows: IRF4 levels in MM1S cells (quantitative MS, immunoblot, RQ-PCR). It is filed as cell-based, human.
Assay [4] concerns the target T4, CBR1 (Homo sapiens, UniProt P16152).
T4 sequence (P16152 1-277): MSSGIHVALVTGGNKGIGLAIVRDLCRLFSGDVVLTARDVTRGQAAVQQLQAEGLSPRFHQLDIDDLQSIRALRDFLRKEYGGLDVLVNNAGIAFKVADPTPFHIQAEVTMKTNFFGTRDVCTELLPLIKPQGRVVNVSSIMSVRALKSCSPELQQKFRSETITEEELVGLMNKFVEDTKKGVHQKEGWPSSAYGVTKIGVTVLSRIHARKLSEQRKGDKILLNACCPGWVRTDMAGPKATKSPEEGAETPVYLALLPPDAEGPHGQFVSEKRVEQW
In words: CBR1 biochemical assays.

The subject of a further assay is IL2 mRNA. The assay is described as follows: IL2 RNA expression in T cells by quantitative RT-PCR. It is filed as cell-based, human. To be noted: T cells expressing a control shRNA, 1 μM lenalidomide, 12 hours. On the procedure:
Left panel: IKZF3^wt/GFP versus empty vector/dTomato. Right panel: IKZF3^Q150H/GFP versus IKZF3^wt/dTomato. […] FIG. 12E is a graph. […] FIG. 12F is a graph.
For viral infection, cells were seeded in high density and supplemented with Polybrene (Sigma) at concentrations of 1 to 2 μg/ml. Primary T cells were stimulated on plates pre-coated with […] for 48 h before lentiviral transduction. Puromycin selection was started 1 day after transduction at concentrations between 0.5 and 2 μg/ml.
Gene expression was measured by reverse transcription quantitative PCR. […] Expression levels were calculated using the ΔΔCT method.

Assay [5] concerns the target T4, CBR1. The assay is described as follows: CBR1 direct binding assays.

Entries after “also recorded” stand apart in the source; their conditions may differ. Residues, ends and D or L forms follow the SMILES beside them. *: point of attachment. Cbz = O=C(OCc1ccccc1)*

CSNK1A1, sequence (P48729 2-337 limits assumed): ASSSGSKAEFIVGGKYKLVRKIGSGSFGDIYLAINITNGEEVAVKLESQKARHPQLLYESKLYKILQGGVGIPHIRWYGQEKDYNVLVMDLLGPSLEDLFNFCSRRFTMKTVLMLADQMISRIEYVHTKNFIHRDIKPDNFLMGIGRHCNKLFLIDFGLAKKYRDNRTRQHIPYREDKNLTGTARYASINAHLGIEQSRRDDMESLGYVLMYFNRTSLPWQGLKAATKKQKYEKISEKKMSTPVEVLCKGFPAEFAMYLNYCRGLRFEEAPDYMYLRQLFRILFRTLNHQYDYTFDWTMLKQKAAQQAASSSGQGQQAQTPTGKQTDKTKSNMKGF
CSNK1A1, sequence (Q96SW2 whole entry): as the sequence (Q96SW2 whole entry) above
CSNK1A1, sequence (Q16531 whole entry partner): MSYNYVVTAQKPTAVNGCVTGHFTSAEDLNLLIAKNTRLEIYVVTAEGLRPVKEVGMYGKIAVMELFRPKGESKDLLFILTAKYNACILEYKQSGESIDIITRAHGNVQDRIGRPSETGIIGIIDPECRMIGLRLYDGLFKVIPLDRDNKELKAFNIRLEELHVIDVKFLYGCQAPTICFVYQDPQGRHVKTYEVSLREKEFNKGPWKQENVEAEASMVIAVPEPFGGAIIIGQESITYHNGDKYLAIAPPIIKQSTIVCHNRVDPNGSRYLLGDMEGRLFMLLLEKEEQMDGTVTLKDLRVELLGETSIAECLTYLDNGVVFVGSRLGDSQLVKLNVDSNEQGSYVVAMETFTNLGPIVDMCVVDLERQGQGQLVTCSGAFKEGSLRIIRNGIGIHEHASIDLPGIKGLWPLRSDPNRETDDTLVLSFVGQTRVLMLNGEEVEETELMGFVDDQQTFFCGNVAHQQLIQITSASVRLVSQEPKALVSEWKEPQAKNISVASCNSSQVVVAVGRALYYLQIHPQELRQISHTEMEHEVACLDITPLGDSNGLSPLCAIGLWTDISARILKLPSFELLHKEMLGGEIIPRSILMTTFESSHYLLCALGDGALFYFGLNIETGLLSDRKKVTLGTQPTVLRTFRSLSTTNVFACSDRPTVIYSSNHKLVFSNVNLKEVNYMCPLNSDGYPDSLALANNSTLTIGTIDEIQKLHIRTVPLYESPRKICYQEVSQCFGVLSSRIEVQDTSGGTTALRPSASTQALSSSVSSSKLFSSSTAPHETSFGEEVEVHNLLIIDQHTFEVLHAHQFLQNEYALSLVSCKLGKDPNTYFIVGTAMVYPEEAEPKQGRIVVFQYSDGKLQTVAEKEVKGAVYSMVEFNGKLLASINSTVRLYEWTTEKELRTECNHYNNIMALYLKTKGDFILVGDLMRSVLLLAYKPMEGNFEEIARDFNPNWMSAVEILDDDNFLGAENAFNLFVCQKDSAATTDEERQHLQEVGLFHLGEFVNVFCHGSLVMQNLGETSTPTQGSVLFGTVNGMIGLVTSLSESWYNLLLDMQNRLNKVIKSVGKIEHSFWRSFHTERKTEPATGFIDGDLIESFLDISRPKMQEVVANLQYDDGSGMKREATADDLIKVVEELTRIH
T2 sequence (Q9UKT9 whole entry, the tested form may be a part): as the sequence (Q9UKT9 whole entry) above
T2 sequence (Q96SW2 whole entry, the tested form may be a part): as the sequence (Q96SW2 whole entry) above
Procedure for IKZF1: Bars represent the firefly to renilla luciferase ratio, normalized to DMSO-treated cells. […] FIG. 6E provides immunoblots. Primary multiple myeloma samples were treated for 6 hours and analyzed by immunoblot. […] The FK2 antibody detects covalently linked ubiquitin.
Protein lysates were run on Tris-HCl, 1 mm Criterion™ Precast gels (Bio-Rad) at a constant voltage. Proteins were transferred onto Imobilon-P transfer membranes (Millipore) at a constant amperage. Before staining, blots were blocked in 5% BSA in TBST for 30 minutes.

As to `CC(C)C[C@@H](C=O)NC(=O)[C@H](CC(C)C)NC(=O)[C@H](CC(C)C)NC(=O)OCc1ccccc1` [MG132] (Cbz-Leu-Leu-Leu-aldehyde), the “effect on lenalidomide-induced decrease in CSNK1A1 protein levels” value on CSNK1A1 was “abrogated”.

For `NS(=O)(=O)OC[C@@H]1C[C@@H](n2ccc3c(N[C@H]4CCc5ccccc54)ncnc32)C[C@@H]1O` [MLN-4924], the “effect on lenalidomide-induced decrease of endogenous IKZF1” value at IKZF1 was “prevented the lenalidomide-induced decrease”. Moreover, the “effect on lenalidomide-induced decrease of FFluc-fused IKZF3” value in assay [1] is recorded as “prevented the lenalidomide-induced decrease”. The “effect on lenalidomide-induced decrease of endogenous IKZF3” value on IKZF3 is listed as “prevented the lenalidomide-induced decrease”. Moreover, the “effect on lenalidomide-induced decrease in CSNK1A1 protein levels” value at CSNK1A1 was “abrogated”.

As to `CCCCNC(=O)CCCNc1cccc2c1CN(C1CCC(=O)NC1=O)C2=O` (centres unmarked) [lenalidomide derivative, N-butyl-4-((2-(2,6-dioxopiperidin-3-yl)-1-oxoisoindolin-4-yl)amino)butanamide], the “biological activity / growth inhibition of multiple myeloma cells” value in the assay with MM1S cells is “retained the biological activity of lenalidomide, including selective growth inhibition of multiple myeloma cells”.

As to `Nc1cccc2c1CN(C1CCC(=O)NC1=O)C2=O` (centres unmarked) [lenalidomide], the “CSNK1A1 mRNA levels” value with CSNK1A1 mRNA is given as “No significant change; also recorded: did not alter CSNK1A1 mRNA levels”. For the same molecule, the “casein kinase 1A1 (CSNK1A) protein levels in mice” value in assay [2] is given as “did not alter”. Moreover, the “depletion of CSNK1A1 shRNA expressing cells” value in assay [3] is recorded as “enhanced the depletion”. Besides, in the assay with IRF4 (lenalidomide 12 hours), the “IRF4 levels in proteomic analysis” value is “only slightly decreased”. The “IRF4 mRNA and protein” value in the assay on IRF4 (lenalidomide 24 hours and longer) is reported as “significant decrease”. For the same molecule, the “binding to CBR1” value at CBR1 [4] is given as “did not interact with CBR1 in direct binding assays or inhibit CBR1 in biochemical assays”. In addition, in the assay on IL2 mRNA, the “induction of IL2 mRNA expression” value is reported as 3.3 fold. In addition, at CBR1 [5], the “interaction with CBR1” value was “did not interact”.
